Measurements reported in patent US10981932B2, “Macrocyclic indole derivatives” (Bayer Aktiengesellschaft, priority 2016, dated 2021).
Structures can show the parent of a compound that is named as a salt. Where two headings read alike, the source gives them in different places.

Experiments:
MCL-1 = MCL-1 (Homo sapiens, UniProt Q07820); assay: Protein-protein interaction assay MCL-1/Noxa BH3 peptide (MCL-1 assay), TR-FRET; format: binding; conditions: MBP-MCL-1 / Noxa BH3-derived peptide, median
Summary of the method: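 Inhibition values were normalized between DMSO controls with all reagents and controls lacking MCL-1. The binding competition used 1 nM MBP-MCL-1 in pH 7 Tris buffer containing 50 mM KF and 100 mM NaCl, with a 10 min compound preincubation at 22 °C.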

SUDHL5 [1] = assay: Induction of caspase-3/7 activity (Caspase-Glo 3/7), SUDHL5; format: cell-based; conditions: caspase-3/7 induction, SUDHL5 cells, 3 h treatment, median
Summary of the method: (§1)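 Apoptosis induction measured as caspase-3/7 activity (Caspase-Glo 3/7) in DLBCL lines after 3 h treatment at 37 °C; EC50 derived relative to the reference compound's maximal induction, with C0 fixed at 1.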

SUDHL10 [2] = assay: Induction of caspase-3/7 activity (Caspase-Glo 3/7), SUDHL10; format: cell-based; conditions: caspase-3/7 induction, SUDHL10 cells, 3 h treatment, median
Summary of the method: as §1

OPM2 = assay: Anti-proliferative effect (CellTiter-Glo, 72 h), OPM2; format: cell-based; conditions: Homo sapiens, OPM-2, 72 h, OPM2 cells, median, read-out: IC50 antiproliferation assay OPM2 [M] (median)
Description: Assessment of the Anti-Proliferative Effect of Compounds in Different Cell Lines
The impact of compounds on the proliferation of different cell lines was assessed using the CellTiter-Glo® Luminescent Cell Viability reagent from Promega (G7573). Of note, SUDHL10 and SUDHL5 (DLBCL), NCI-H929 (Multiple Myeloma), A2780 (ovarian carcinoma) as well as MV-4-11(AML) cells are sensitive to MCL-1 inhibition.
In parallel, cells were plated in a reference (day 0) plate for time zero determination.
Rim wells were excluded. The cells were incubated for 72 h hours in a humidified incubator at 37° C. The day 0 plate was measured by adding 30 μl/well of CTG solution (CellTiter-Glo® Luminescent Cell Viability reagent, Promega G7573) to time zero wells in the reference plate followed by a 10 minutes incubation and luminescence reading at 0.1 ms, using the PHERAstar FS microplate reader (BMG Labtech).
After 72 h incubation, the treated plates were measured in the same way as the day 0 plate mentioned above.

A2780 = assay: Anti-proliferative effect (CellTiter-Glo, 72 h), A2780; format: cell-based; conditions: A2780 cells, median, read-out: IC50 antiproliferation assay A2780 [M] (median)
Summary of the method: (§2)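 Luminescence from CellTiter-Glo, read 10 min after reagent addition, reports viable cell content after 72 h of compound treatment at 37 °C. A reference plate read at day 0 gives the starting baseline.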

SUDHL5 [3] = assay: Anti-proliferative effect (CellTiter-Glo, 72 h), SUDHL5; format: cell-based; conditions: SUDHL5 cells, antiproliferation, median, read-out: Antiproli SUDHL5 [M] (median)
Summary of the method: as §2

SUDHL10 [4] = assay: Anti-proliferative effect (CellTiter-Glo, 72 h), SUDHL10; format: cell-based; conditions: SUDHL10 cells, antiproliferation, median, read-out: Antiproli SUDHL10 [M] (median)
Summary of the method: as §2

SUDHL5 [5] = assay: Induction of cytotoxicity (CellTiter-Glo, 5 h), SUDHL5
SUDHL10 [6] = assay: Induction of cytotoxicity (CellTiter-Glo, 5 h), SUDHL10
[7] = read-out: Cytotox SUDHL5 [M] (median), SUDHL5 cells, cytotoxicity induction, CellTiter-Glo, 5 h incubation, median
[8] = read-out: Cytotox SUDHL10 [M] (median), SUDHL10 cells, cytotoxicity induction, CellTiter-Glo, 5 h incubation, median
[9] = read-out: Cytotox SUDHL5 [M] (median), SUDHL5 cells, cytotoxicity induction, CellTiter-Glo, 5 h, median
[10] = read-out: Cytotox SUDHL10 [M] (median), SUDHL10 cells, cytotoxicity induction, CellTiter-Glo, 5 h, median

MCL-1, sequence (Q07820 whole entry): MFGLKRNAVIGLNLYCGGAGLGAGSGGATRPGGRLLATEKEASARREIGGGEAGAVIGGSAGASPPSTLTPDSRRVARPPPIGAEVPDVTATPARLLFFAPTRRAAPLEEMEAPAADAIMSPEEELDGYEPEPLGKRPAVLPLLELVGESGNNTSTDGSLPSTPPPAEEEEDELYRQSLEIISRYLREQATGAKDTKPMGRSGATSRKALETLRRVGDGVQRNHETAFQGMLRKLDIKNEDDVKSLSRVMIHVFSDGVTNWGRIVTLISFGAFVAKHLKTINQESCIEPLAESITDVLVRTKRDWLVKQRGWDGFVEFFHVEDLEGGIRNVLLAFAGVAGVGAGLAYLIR

Row | SMILES | IC50 (MCL-1) [nM] | EC50 (SUDHL5 [1]; Homo sapiens, SU-DHL-5, 3 h) [µM] | EC50 (SUDHL10 [2]; Homo sapiens, SU-DHL10, 3 h) [µM] | IC50 (OPM2) [M] | IC50 (A2780; Homo sapiens, A2780, 72 h) [M] | EC50 (SUDHL5 [1]) [µM] | EC50 (SUDHL10 [2]) [µM] | IC50 (SUDHL5 [3]; 72 h incubation) [M] | IC50 (SUDHL10 [4]; 72 h incubation) [M] | IC50 (A2780) [M] | IC50 (SUDHL5 [5]; [7]) [M] | IC50 (SUDHL10 [6]; [8]) [M] | IC50 (SUDHL5 [3]; 72 h) [M] | IC50 (SUDHL10 [4]; 72 h) [M] | IC50 (SUDHL5 [5]; [9]) [M] | IC50 (SUDHL10 [6]; [10]) [M] | IC50 (SUDHL5 [3]; Homo sapiens, SU-DHL-5, 72 h, 72 h) [M] | IC50 (SUDHL10 [4]; Homo sapiens, SU-DHL10, 72 h, 72 h) [M] | IC50 (SUDHL5 [5]; Homo sapiens, SU-DHL-5, 5 h, read-out: Cytotox SUDHL5 [M] (median), SUDHL5 cells, cytotoxicity induction, CellTiter-Glo, 5 h, median) | IC50 (SUDHL10 [6]; Homo sapiens, SU-DHL10, 5 h, read-out: Cytotox SUDHL10 [M] (median), SUDHL10 cells, cytotoxicity induction, CellTiter-Glo, 5 h, median)
1 | CC(C)OCc1nn(C)c2c1-c1cccc3c(CCCOc4cccc5ccccc45)c(C(=O)O)n(c13)C/C=C\COC2 (racemic) [Example 1-68, (rac)-(11Z)-1-methyl-7-[3-(naphthalen-1-yloxy)propyl]-3-[(propan-2-yloxy)methyl]-1,10,13,15-tetrahydropyrazolo[4′,3′:9,10][1,6]oxazacycloundecino[8,7,6-hi]indole-8-carboxylic Acid] | 26.9 | > 33 | > 33 | > 3.3e-05 | 2.87e-05 |  |  |  |  |  |  |  |  |  |  |  |  |  |  | 
2 | Cn1nc2c(c1C(F)(F)F)-c1cccc3c(CCCOc4cccc5ccccc45)c(C(=O)O)n(c13)CCCCOC2 (single isomer, unassigned; enantiomer 2) [Example 195, 2-methyl-7-[3-(naphthalen-1-yloxy)propyl]-3-(trifluoromethyl)-2,10,11,12,13,15-hexahydropyrazolo[4′,3′:9,10][1,6]oxazacycloundecino[8,7,6-hi]indole-8-carboxylic Acid (Enantiomer 2)] | 53.2 |  |  |  |  | > 33 | > 33 | 5.84e-06 | 1.32e-05 | 1.27e-05 | > 3.3e-05 | > 3.3e-05 |  |  |  |  |  |  |  | 
3 | CCCc1nn(C)c2c1-c1c(C)ccc3c(CCCOc4cccc5ccccc45)c(C(=O)O)n(c13)CCCN(C)C2 (single isomer, unassigned; enantiomer 2) [Example 197, 7,9,12-trimethyl-1-[3-(naphthalen-1-yloxy)propyl]-1-propyl-4,5,6,7,8,9-hexahydropyrazolo[3′,4′:7,8][1,5]diazecino[9,10,1-hi]indole-2-carboxylic acid-N-ethylethanamine Salt (Enantiomer 2)] | 104 |  |  |  |  | 28.7 | > 33 | 1.78e-05 | 8.15e-06 | 1.49e-05 | 1.93e-05 | 1.55e-05 |  |  |  |  |  |  |  | 
4 | CCc1nn(CCN2CCOCC2)c2c1-c1cccc3c(CCCOc4cccc5ccccc45)c(C(=O)O)n(c13)CCCCOC2 (single isomer, unassigned; enantiomer 2) [Example 200, 3-ethyl-1-[2-(morpholin-4-yl)ethyl]-7-[3-(naphthalen-1-yloxy)propyl]-1,10,11,12,13,15-hexahydropyrazolo[4′3′:9,10][1,6]oxazacycloundecino[8,7,6-hi]indole-carboxylic Acid (Enantiomer 2)] | 24.8 |  |  |  |  | > 33 | 18.8 | 1.87e-05 | 1.12e-05 | 2.57e-05 | 2.41e-05 | 1.99e-05 |  |  |  |  |  |  |  | 
5 | COc1ccc(OCc2nn(C)c3c2-c2cccc4c(CCCOc5cccc6ccccc56)c(C(=O)O)n(c24)CCCCOC3)cc1 (single isomer, unassigned; enantiomer 2) [Example 321, 3-[(4-methoxyphenoxy)methyl]-1-methyl-7-[3(naphthalen-1 yloxy)propyl]-1,10,11,12,13,15-hexahydropyrazolo[4′,3′:9,10][1,6]oxazacycloundecino[8,7,6-hi]indole-8-carboxylic acid-N-ethylethanamine Salt (Enantiomer 2)] | 639 |  |  |  |  | 30.3 | > 33 |  |  | 1e-05 |  |  | 1.22e-05 | 4.61e-06 | 2.97e-05 | 2.56e-05 |  |  |  | 
6 | Cn1nc(COc2ccc(NS(C)(=O)=O)cc2)c2c1COCCCCn1c(C(=O)O)c(CCCOc3cccc4ccccc34)c3cccc-2c31 (single isomer, unassigned; enantiomer 2) [Example 323, 1-methyl-3-({4-[(methylsulfonyl)amino]phenoxy}methyl)-7-[3-(naphthalen-1-yloxy)propyl]-1,10,11,12,13,15-hexahydropyrazolo[4′,3′:9,10][1,6]oxazacycloundecino[8,7,6-hi]indole-8-carboxylic acid-N-ethylethanamine Salt (Enantiomer 2)] | 320 |  |  |  |  | > 33 | > 33 |  |  | 2.18e-05 |  |  | 1.32e-05 | 1.36e-05 | > 3.3e-05 | > 3.3e-05 |  |  |  | 
7 | Cn1nc(CN2CCCCC2=O)c2c1COCCCCn1c(C(=O)O)c(CCCOc3cccc4ccccc34)c3cccc-2c31 (single isomer, unassigned; enantiomer 2) [Example 327, 1-methyl-7-[3-(naphthalen-1-yloxy)propyl]-3-[(2-oxopiperidin-1-yl)methyl]-1,10,11,12,13,15-hexahydropyrazolo[4′,3′:9,10][1,6]oxazacycloundecino[8,7,6-hi]indole-8-carboxylic Acid (Enantiomer 2)] | 103 |  |  |  |  | > 33 | > 33 |  |  | 3.12e-05 |  |  | 2.48e-05 | 1.3e-05 | > 3.3e-05 | > 3.3e-05 |  |  |  | 
8 | Cn1nc(CN2CCCC2=O)c2c1COCCCCn1c(C(=O)O)c(CCCOc3cccc4ccccc34)c3cccc-2c31 (single isomer, unassigned; enantiomer 2) [Example 329, 1-methyl-7-[3-(naphthalen-1-yloxy)propyl]-3-[(2-oxopyrrolidin-1-yl)methyl]-1,10,11,12,13,15-hexahydropyrazolo[4′,3′:9,10][1,6]oxazacycloundecino[8,7,6-hi]indole-8-carboxylic Acid (Enantiomer 2)] | 3000 | > 33 | > 33 |  | > 3.3e-05 |  |  |  |  |  |  |  |  |  |  |  | > 3.3e-05 | > 3.3e-05 | > 3.3e-05 | > 3.3e-05
9 | Cn1nc(CN2CCCC2)c2c1COCCCCn1c(C(=O)O)c(CCCOc3cccc4ccccc34)c3cccc-2c31 (single isomer, unassigned; enantiomer 2) [Example 337, 1-methyl-7-[3-(naphthalen-1-yloxy)propyl]-3-(pyrrolidin-1-ylmethyl)-1,10,11,12,13,15-hexahydropyrazolo[4′3′:9,10][1,6]oxazacycloundecino[8,7,6-hi]indole-carboxylic Acid (Enantiomer 2)] | 977 |  |  |  |  | > 33 | > 33 |  |  | > 3.3e-05 |  |  | 1.97e-05 | > 3.3e-05 | > 3.3e-05 | > 3.3e-05 |  |  |  | 
10 | CC(=O)NCc1nn(C)c2c1-c1cccc3c(CCCOc4cccc5ccccc45)c(C(=O)O)n(c13)CCCCOC2 (single isomer, unassigned; enantiomer 2) [Example 341, 3-[(acetylamino)methyl]-1-methyl-7-[3-(naphthalen-1-yloxy)propyl]-1,10,11,12,13,15-hexahydropyrazolo[4′3′:9,10][1,6]oxazacycloundecino[8,7,6-hi]indole-cararboxylic Acid (Enantiomer 2)] | 651 |  |  |  |  | > 33 | > 33 |  |  | > 3.3e-05 |  |  | 6.48e-06 | > 3.3e-05 | 2.64e-05 | > 3.3e-05 |  |  |  | 
